Laboratory results from patent publication US10814002B2, “Patch and method for producing the same” (HISAMITSU PHARMACEUTICAL CO., INC., priority 2012, dated 2020).
Where a name gives a salt, the structure may show the parent alone.

Experiment: Oral (sublingual) administration of 5 mg asenapine maleate to healthy adult men
Assay type: in vivo, human
Details: 5 mg asenapine maleate sublingual, healthy adult men (18)
Description: The N-desmethyl asenapine tends to cause adverse effects such as adverse effects on the cardiovascular system in comparison with asenapine. For example, in a case where 5 mg of asenapine maleate is orally administered (sublingual administration), the area under plasma concentration-time curve of the free asenapine for a period between 10 minutes and 72 hours (AUC0.17.72) can be 25,000 to 38,000 pg·hr/mL. In this case, N-desmethyl asenapine has an AUC0.17.72 of 10,000 to 17,000 pg·hr/mL, which is 40% or more of the […] of the free asenapine. In contrast, when approximately the same amount (4.8 mg) of asenapine is administrated using the patch of the present invention comprising the isopropyl palmitate in the adhesive agent layer, this makes it possible to sufficiently suppress the AUC of the asenapine metabolite while the free asenapine has an AUC equivalent to that in the case of the oral administration.
Furthermore, in a case where the patch obtained in Example 2 was administrated, the incidence proportion of adverse effects on the cardiovascular system in the AUC measurement test was 6%. […]

Structure (SMILES): CN1C[C@@H]2c3ccccc3Oc3ccc(Cl)cc3[C@H]2C1 (relative stereo) [asenapine maleate, trans-5-chloro-2-methyl-2,3,3a,12b-tetrahydro-1H-diben z[2,3:6,7]oxepino[4,5-c]pyrrole]
- incidence proportion of adverse effects on the cardiovascular system: 39%
- AUC0.17.72 of the free asenapine (average value) (plasma, 10 minutes to 72 hours): 32,074 pg·hr/mL
